Measured values published in patent US20240075087A1, “COMPOSITIONS AND METHODS COMPRISING HEMP EXTRACT FOR THE TREATMENT OF ANIMALS IN NEED” (Portland Technology Holdings LLC, priority 2021, published 2024).
In brackets after ≈: the same amount, converted by molar mass.

What was measured:
CYP2D15 = biological target: T1, CYP2D15 (Canis lupus familiaris, UniProt Q29473); test: CYP2D15 activity inhibition in pooled dog liver microsomes; format: in vitro ADME; details: no preincubation vs 20 min preincubation, 10 μM
T1 construct: P450-specific marker activities in pooled dog liver microsomes; from tissue; host or cells: pooled dog liver microsomes
T1 sequence (Q29473 1-500): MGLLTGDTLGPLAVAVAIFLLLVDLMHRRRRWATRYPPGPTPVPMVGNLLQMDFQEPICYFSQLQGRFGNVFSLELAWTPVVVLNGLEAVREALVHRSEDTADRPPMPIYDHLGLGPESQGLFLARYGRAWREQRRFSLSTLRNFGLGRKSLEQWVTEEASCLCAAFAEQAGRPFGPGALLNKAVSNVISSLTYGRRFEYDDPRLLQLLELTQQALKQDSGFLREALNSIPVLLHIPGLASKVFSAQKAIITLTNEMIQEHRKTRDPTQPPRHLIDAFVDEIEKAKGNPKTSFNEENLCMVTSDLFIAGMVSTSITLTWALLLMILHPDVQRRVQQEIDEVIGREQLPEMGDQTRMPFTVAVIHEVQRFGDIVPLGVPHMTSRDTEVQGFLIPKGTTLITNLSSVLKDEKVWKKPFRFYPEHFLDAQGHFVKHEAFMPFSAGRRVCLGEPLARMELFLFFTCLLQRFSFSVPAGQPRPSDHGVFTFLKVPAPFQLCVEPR
Procedure: Inhibition potency (i.e. IC50) is determined by measuring the decrement in metabolism of P450-specific marker activities in pooled dog liver microsomes with increasing concentrations of CBD, CBDA, and hemp extracts. P450-specific markers include bupropion 6-hydroxylation (CYP2B11), dextromethorphan 0-demethylation (CYP2D15) and omeprazole sulfoxidation (CYP3A12). IC50 values are determined both with and without preincubation of liver microsomes with potential inhibitor to evaluate whether there is mechanism-based time-dependent inhibition.
The following parameters are assessed: (1) the rates of CBD and CBDA metabolism by dog liver microsomes and by 11 recombinant canine P450 enzymes; (2) the predicted percent contribution of each P450 to total CBD and CBDA metabolism in dog liver; and (3) IC50 values for inhibition of CYP2B11, CYP2D15 and CYP3A12 metabolism in dog liver, both with and without inhibitor preincubation.

[1] = test system: 17-71 B cell lymphoma cell line; test: 48 hours MTT proliferation assay, 17-71; format: cell-based, canine; details: pure compound
Procedure: 3-(4,5-Dimethylthaizol-2-yl)-2,5-diphenyltetrazolium bromide (MTT) assays are performed on all previously described cell lines; CMT12, HMPOS, D17, Abrams and 17-71. […] Cells are treated with vehicle (methanol or ethanol/DMSO mix) or various concentrations of the CBD, CBDA or CBD-rich hemp extract ranging from 0.42 to 20 μg/mL in serial dilution for 48 hours. MTT assays are performed after 48 hours of treatment by adding 20 μL of MTT dye ([…] filtered 5 mg/mL in phosphate-buffered saline [PBS]) to each well and incubating at 37° C. in 5% CO2 for 2 hours. The media is then aspirated, washed once with 200 μL of PBS and then solubilized in 200 μL of ethanol. Immediate analysis of the optical density of each well is performed using a spectrophotometric plate reader (Epoch; Biotek, Winooski, Vermont) at a wavelength of 570 nm as previously described (e.g., Vega-Avila E and Pugsley M K, An overview of colorimetric assay methods used to assess survival or proliferation of mammalian cells, Proc West Pharmacol Soc., 2011, 54, pp. 10-14 which is incorporated herein by reference in its entirety). The percent proliferating cells of control for each concentration is averaged and reported as a mean+/—SD from triplicate wells over three experiments.
For CBD, CBDA and hemp extract concentrations needed to obtain a 50% inhibition of cell proliferation (IC50) are then calculated across experiments by Probit analysis using XLFit5 software (IDBS, Guildford, United Kingdom) for reporting the results for each cell line.

17-71 cell line = test: Annexin V-FITC apoptosis assay, 17-71; format: cell-based, canine; details: 15 μg/mL CBD, VC 10.1±0.4%
Procedure: (§1) Apoptosis after 4 and 8 hours treatment is measured using Annexin-V staining (Invitrogen Annexin V-FITC staining kit, Carlsbad, California). Briefly, cells are detached with Accumax (Innovative Cell Technologies, San Diego, California), collected and centrifuged for 10 m at 1000 g at 4° C. The pellet is washed once with PBS before resuspension in Annexin Binding Buffer (ABB; 10 mM HEPES, 140 mM NaCl, 2.5 mM CaCl2, pH 7.4) at a density of approximately 1×10^6 cell/mL. […] After the incubation, ABB is added to the cell suspension and kept on ice until fluorescence is measured with the BD FACScalibur flow cytometer using an argon laser (BD Biosciences, Ashland, Oregon). Ten thousand events are collected per sample. Analysis is performed with the FlowJo software (Version 10.7.1. Becton, Dickinson, Ashland, Oregon) by first gating based on the forward- and side-scatter characteristics for each cell line followed by Annexin V-FITC positive cells. Negative fluorescence controls are unstained cells. Three independent replicates are examined for each treatment.

CMT12 cell line = test: Annexin V-FITC apoptosis assay, CMT12; format: cell-based, canine; details: 15 μg/mL CBD, VC 10.9±2.0%
Procedure: as §1

CMT12 and D17 cells = test: LC3A/B immunofluorescence; format: cell-based, canine; details: 10 μg/mL CBD, 6 hours
Procedure: CMT12 and D17 adherent cell lines are split into Nunc chamber slides (ThermoFisher Scientific, Rochester, New York) and the cells that are 70% confluent are treated for 6 hours with either methanol control or 10 μg/mL of CBD. Cells are fixed with 4% paraformaldehyde for 1 hour and then permeabilized with PBS containing 0.1% Triton X-100 for 30 minutes. Cells are then washed with PBS and incubated with bovine serum albumin (Sigma Aldrich, St. Louis, Missouri) for 30 minutes and then goat anti-serum (Vector Labs, Burlingame, California) for 1 hour and then washed twice with PBS for 10 minutes while rocking at room temperature. […] Coverslips are mounted using Vectrashield DAPI mounting media (Vector Labs, Burlingame, California) and the images are captured at the same fluorescence intensity for each image at 400 or 600 magnification and processed using an Olympus fluorescent microscope and DP controller software (Olympus Corp., Center Valley, Pennsylvania).

C=C(C)[C@@H]1CCC(C)=C[C@H]1c1c(O)cc(CCCCC)cc1O [CBD, cannabidiol]
time-dependent inhibition (TDI) (CYP2D15): showed time-dependent inhibition (TDI)
IC50 ([1]; Canis lupus familiaris, B-cell, read-out: IC50 (Probit)): 2.5 µg/mL (≈ 7.95 µM)
concentrations that significantly diminished proliferation vs vehicle control ([1]; P<0.05): ≥ 2.5 µg/mL
Annexin V positive staining cells (17-71 cell line; 4 hours): 31.0±10.8%
Annexin V positive staining cells (17-71 cell line; 8 hours): 79.0±6.1%
Annexin V positive staining cells (CMT12 cell line; 4 hours): 15.7±2.2%
Annexin V positive staining cells (CMT12 cell line; 8 hours): 21.5±2.5%
LC3A/B immunofluorescence (CMT12 and D17 cells): numerous discrete punctate intensely staining vesicles
